Data from patent publication US9290461B2, “Crystalline modifications of prothioconazole” (ADAMA MAKHTESHIM LTD, priority 2008, dated 2016).

Assays:
[1] = at room temperature; cited from earlier work
[2] = Solubility in water, Shake Flask Method (OECD Guideline 105); format: physicochemical; conditions: 20° C., buffered at pH 7, Shake Flask Method (OECD Guideline 105)
Method: The following solubilities were measured in water, 20° C., buffered at pH 7, using the Shake Flask Method (OECD Guideline 105): […]

| Structure (SMILES) | thermodynamic stability of the crystalline form [1] | solubility in water [2] |
| --- | --- | --- |
| OC(Cc1ccccc1Cl)(Cn1nc[nH]c1=S)C1(Cl)CC1 (racemic) [Form I, 2-[(2RS)-2-(1-chlorocyclopropyl)-3-(2-chlorophenyl)-2-hydroxypropyl]-2H-1,2,4-triazole-3(4H)-thione] | metastable at room temperature | 28 ppm |
| OC(Cc1ccccc1Cl)(Cn1nc[nH]c1=S)C1(Cl)CC1 (racemic) [Form II, 2-[(2RS)-2-(1-chlorocyclopropyl)-3-(2-chlorophenyl)-2-hydroxypropyl]-2H-1,2,4-triazole-3(4H)-thione] | thermodynamically stable at room temperature | 15 ppm |
| OC(Cc1ccccc1Cl)(Cn1nc[nH]c1=S)C1(Cl)CC1 (stereo not drawn) [Amorphous, prothioconazole] |  | 34 ppm |
| OC(Cc1ccccc1Cl)(Cn1nc[nH]c1=S)C1(Cl)CC1 (stereo not drawn) [DMSO Solvate, prothioconazole] |  | 30 ppm |
